Data reported in patent US20240067631A1, “PYRAZOLE DERIVATIVES USEFUL AS NAMPT MODULATORS” (Cytokinetics, Inc., priority 2020, published 2024).

Molecular target: human NAMPT (Homo sapiens (Human), UniProt P43490)
Experiment: Human recombinant enzyme assay (NMN fluorescence biochemical assay)
Settings: 6 nM human NAMPT, 60 min; for AC1.4 Human: concentration of compound that generates 40% higher activity over basal; for EC50: concentration that gives half-maximal activation
Procedure, shortened: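 Recombinant human NAMPT (6 nM) with 2.5 mM ATP, […] PRPP and […] nicotinamide in HEPES pH 7.2 with DTT, CHAPS, NaCl, MgCl2; 60 min at ambient temperature. NMN derivatised with acetophenone/KOH/formic acid, fluorescence read at 355/460 nm. AC1.4 (40% above basal) and EC50 reported.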

Chain of human NAMPT (P43490 whole entry): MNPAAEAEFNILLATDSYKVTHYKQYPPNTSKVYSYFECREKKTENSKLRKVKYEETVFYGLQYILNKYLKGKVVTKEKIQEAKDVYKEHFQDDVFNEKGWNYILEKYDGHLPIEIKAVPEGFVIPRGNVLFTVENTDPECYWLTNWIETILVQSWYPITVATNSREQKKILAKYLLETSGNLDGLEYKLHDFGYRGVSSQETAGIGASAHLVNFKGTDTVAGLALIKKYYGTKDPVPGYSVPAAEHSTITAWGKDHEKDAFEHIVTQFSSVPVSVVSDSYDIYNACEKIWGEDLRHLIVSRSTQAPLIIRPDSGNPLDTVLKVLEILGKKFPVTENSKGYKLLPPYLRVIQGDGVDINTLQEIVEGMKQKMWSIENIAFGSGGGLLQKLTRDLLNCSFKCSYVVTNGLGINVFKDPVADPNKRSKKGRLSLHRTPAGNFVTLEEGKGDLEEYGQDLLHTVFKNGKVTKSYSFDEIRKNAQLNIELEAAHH

Structure (SMILES) | AC1.4 Human [µM] | EC50 [µM]
Cc1ccc(C(C)NC(=O)c2nc(C)c(C)c(NCCc3cn[nH]c3)n2)s1 (centres unmarked) [Compound 130, 4-((2-(1H-pyrazol-4-yl)ethyl)amino)-5,6-dimethyl-N-(1-(5-methylthiophen-2-yl)ethyl)pyrimidine-2-carboxamide] | 3.2975 | 41
Cc1cccc([C@H]2CCCN2C(=O)c2nc(C)c(C)c(NCCc3cn[nH]c3)n2)n1 [Compound 131, (R)-(4-((2-(1H-pyrazol-4-yl)ethyl)amino)-5,6-dimethylpyrimidin-2-yl)(2-(6-methylpyridin-2-yl)pyrrolidin-1-yl)methanone] | 3.487 | 10.8
Cc1nc(C(=O)N2CCC2c2ccccc2)nc(NCCc2cn[nH]c2)c1C (centres unmarked) [Compound 132, (4-((2-(1H-pyrazol-4-yl)ethyl)amino)-5,6-dimethylpyrimidin-2-yl)(2-phenylazetidin-1-yl)methanone] | 3.5055 | 13.1
Cc1nc(C(=O)NC(c2ccc(F)c(F)c2)c2nccn2C)nc(NCCc2cn[nH]c2)c1C (centres unmarked) [Compound 134, 4-((2-(1H-pyrazol-4-yl)ethyl)amino)-N-((3,4-difluorophenyl)(1-methyl-1H-imidazol-2-yl)methyl)-5,6-dimethylpyrimidine-2-carboxamide] | 3.578 | 26.2
Cc1nc(C(=O)N[C@H]2C[C@@H](c3ccccc3)C2)nc(NCCc2cn[nH]c2)c1C [Compound 135, 4-((2-(1H-pyrazol-4-yl)ethyl)amino)-5,6-dimethyl-N-((1s,3s)-3-phenylcyclobutyl)pyrimidine-2-carboxamide] | 3.7335 | 17.5
Cc1nc(C(=O)NC(c2cccnc2)C(F)(F)F)nc(NCCc2cn[nH]c2)c1C (centres unmarked) [Compound 136, 4-((2-(1H-pyrazol-4-yl)ethyl)amino)-5,6-dimethyl-N-(2,2,2-trifluoro-1-(pyridin-3-yl)ethyl)pyrimidine-2-carboxamide] | 3.778 | 50.2
Cc1cccc(F)c1NC(=O)c1nc(C)c(C)c(NCCc2cn[nH]c2)n1 [Compound 139, 4-((2-(1H-pyrazol-4-yl)ethyl)amino)-N-(2-fluoro-6-methylphenyl)-5,6-dimethylpyrimidine-2-carboxamide] | 3.809 | 28.5
Cc1nc(C(=O)Nc2ccccc2)nc(NCCc2cn[nH]c2)c1C [Compound 140, 4-((2-(1H-pyrazol-4-yl)ethyl)amino)-5,6-dimethyl-N-phenylpyrimidine-2-carboxamide] | 4.0885 | 18.4
Cc1nc(C(=O)N2CC3(C2)C(=O)Nc2ccccc23)nc(NCCc2cn[nH]c2)c1C [Compound 142, 1-(4-((2-(1H-pyrazol-4-yl)ethyl)amino)-5,6-dimethylpyrimidine-2-carbonyl)spiro[azetidine-3,3′-indolin]-2′-one] | 4.3845 | 31.8
Cc1nc(C(=O)NCCC(C)(C)C(F)(F)F)nc(NCCc2cn[nH]c2)c1C [Compound 143, 4-((2-(1H-pyrazol-4-yl)ethyl)amino)-5,6-dimethyl-N-(4,4,4-trifluoro-3,3-dimethylbutyl)pyrimidine-2-carboxamide] | 4.433 | 46
Cc1nc(C(=O)NC2(c3ccccn3)CCC2)nc(NCCc2cn[nH]c2)c1C [Compound 145, 4-((2-(1H-pyrazol-4-yl)ethyl)amino)-5,6-dimethyl-N-(1-(pyridin-2-yl)cyclobutyl)pyrimidine-2-carboxamide] | 4.9555 | 22.4
C[C@@H](NC(=O)c1nc2c(c(NCCc3cn[nH]c3)n1)CCC2)c1cccc(F)n1 [Compound 146, (R)-4-((2-(1H-pyrazol-4-yl)ethyl)amino)-N-(1-(6-fluoropyridin-2-yl)ethyl)-6,7-dihydro-5H-cyclopenta[d] pyrimidine-2-carboxamide] | 2.7 | –
Cc1nc(C(=O)N2CCC[C@@H]2c2cccc(F)c2)nc(NCCc2cn[nH]c2)c1Cl [Compound 148, (R)-(4-((2-(1H-pyrazol-4-yl)ethyl)amino)-5-chloro-6-methylpyrimidin-2-yl)(2-(3-fluorophenyl)pyrrolidin-1-yl)methanone] | >31 | –
Cc1cc(NCCc2cn[nH]c2)nc(C(=O)N2CCC[C@@H]2c2cccc(F)c2)c1 [Compound 152] | 12.6 | –

Second part, the compound after the results:

AC1.4 Human [µM] | EC50 [µM] | Structure (SMILES)
3.249 | 21.3 | Cc1nc(C(=O)NCCc2cncc(F)c2)nc(NCCc2cn[nH]c2)c1C [Compound 129, 4-((2-(1H-pyrazol-4-yl)ethyl)amino)-N-(2-(5-fluoropyridin-3-yl)ethyl)-5,6-dimethylpyrimidine-2-carboxamide]
3.5315 | 28.9 | Cc1nc(C(=O)NCc2ccncc2)nc(NCCc2cn[nH]c2)c1C [Compound 133, 4-((2-(1H-pyrazol-4-yl)ethyl)amino)-5,6-dimethyl-N-(pyridin-4-ylmethyl)pyrimidine-2-carboxamide]
3.794 | 34.5 | Cc1nc(C(=O)N[C@@H](C)c2ccccn2)nc(NCCc2cn[nH]c2)c1C [Compound 137, (S)-4-((2-(1H-pyrazol-4-yl)ethyl)amino)-5,6-dimethyl-N-(1-(pyridin-2-yl)ethyl)pyrimidine-2-carboxamide]
4.125 | 30.7 | Cc1nc(C(=O)N2CCOCC2C(F)(F)F)nc(NCCc2cn[nH]c2)c1C (centres unmarked) [Compound 138, (4-((2-(1H-pyrazol-4-y)ethyl)amino)-5,6-dimethylpyrimidin-2-yl)(3-(trifluoromethyl)morpholino)methanone]
3.8305 | 20.3 | Cc1nc(C(=O)NCCS(=O)(=O)Cc2ccccc2)nc(NCCc2cn[nH]c2)c1C [Compound 141, 4-((2-(1H-pyrazol-4-yl)ethyl)amino)-N-(2-(benzylsulfonyl)ethyl)-5,6-dimethylpyrimidine-2-carboxamide]
4.755 | 18.4 | Cc1nc(C(=O)Nc2ccncc2F)nc(NCCc2cn[nH]c2)c1C [Compound 144, 4-((2-(1H-pyrazol-4-yl)ethyl)amino)-N-(3-fluoropyridin-4-yl)-5,6-dimethylpyrimidine-2-carboxamide]
0.12 | – | Cc1nc(C(=O)N2CCC[C@@H]2c2cccc(F)c2)nc(NCCc2cn[nH]c2)c1F [Compound 150, (R)-(4-((2-(1H-pyrazol-4-yl)ethyl)amino)-5-fluoro-6-methylpyrimidin-2-yl)(2-(3-fluorophenyl)pyrrolidin-1-yl)methanone]
